Experimental data: article PMC10313671, “Accelerating the prediction and discovery of peptide hydrogels with human-in-the-loop” (Nature Communications, 2023)
Where a SMILES comes first, the peptide text is derived from it.

Tests used:
[1] = Peptide hydrogel formation, vial-inverting method; assay type: physicochemical; parameters: key to EXP / GELATION: 0: no hydrogel; 1: hydrogel; conditions: for State: ultrasonication, standing 48 h; for Concentration: concentration at which the state was recorded: lowest of 30, 60, 90, 120 mM that gave a gel, 120 mM for non-gelating peptides; for GELATION: 1 = hydrogel, 0 = no hydrogel
Method: After validating the efficiency of APHC in predicting tetrapeptide hydrogels, we detailed the phase state of 165 synthesized tetrapeptides and the observed assembly behavior in an aqueous solution.
This work defines hydrogel formation as a self-supporting, non-flowing mixture of water and hydrogelator by the vial-inverting method. All purified tetrapeptides were dissolved in ultrapure water (to form a 30 mM solution initially), followed by the stepwise addition of 1 N NaOH solution to adjust the overall aqueous pH to 6.5–8.5. Meanwhile, a short-term ultrasonication treatment was applied after each pH adjustment to facilitate peptide solubilization and speed up peptide self-assembly. […] The mixture was allowed to stand in for another 48 h for complete hydrogelation. Upon the absence of gelation phenomenon during the aforementioned loops, we increased the peptide concentration (60 mM, 90 mM, and 120 mM were selected) and re-started such gelation operation loop to explore their gelation feasibility.

[2] = Transmission electron microscope (negative staining) of peptide assemblies; conditions: for Morphology: TEM, negative staining with uranyl acetate, 120 kV; for morphology by TEM (in words): aqueous solution or hydrogel, negative staining
Method: We used the negative staining technique to observe the morphologies formed by peptides. A micropipette was used to load 10 μL of sample solution to a carbon-coated copper grid, and we used a piece of filter paper to remove the excess solution. After rinsing the grid with the deionized water, we used uranyl acetate to stain the sample for 1 minute and then rinsed the grid with deionized water again.

[3] = 60 mM peptide in ultrapure water, pH 6.5-8.5 (1 N NaOH), vial-inverting method, no gel at 30 mM
[4] = peptide concentration 60 mM, vial-inverting method
[5] = 120 mM peptide (highest tested) in ultrapure water, pH 6.5-8.5 (1 N NaOH), vial-inverting method, precipitate, sol, suspension = no gel
[6] = peptide concentration 120 mM, vial-inverting method
[7] = 90 mM peptide in ultrapure water, pH 6.5-8.5 (1 N NaOH), vial-inverting method, no gel at lower concentrations
[8] = peptide concentration 90 mM, vial-inverting method
[9] = 30 mM peptide in ultrapure water, pH adjusted to 6.5-8.5 with 1 N NaOH, vial-inverting method, concentration raised 30/60/90/120 mM until gelation
[10] = peptide concentration 30 mM, vial-inverting method

| Structure (SMILES) | Concentration [1] [µM] | State [1, 5] | GELATION [1, 6] | Morphology ([2]; line of the table gives 120 mM) | further results |
| --- | --- | --- | --- | --- | --- |
| C[C@H](NC(=O)[C@@H](N)Cc1c[nH]c2ccccc12)C(=O)N[C@@H](Cc1ccccc1)C(=O)N[C@@H](Cc1ccc(O)cc1)C(=O)O [WAFY] (H-WAFY-OH) | 60000 |  |  |  | State [1, 3]: gel; GELATION [1, 4]: 1; Morphology ([2]; line of the table gives 60 mM): fibre |
| CC(C)[C@H](N)C(=O)N[C@@H](Cc1ccc(O)cc1)C(=O)N[C@H](C(=O)N[C@@H](Cc1ccccc1)C(=O)O)[C@@H](C)O [VYTF] (H-VYTF-OH) | 120000 | sol | 0 | particle |  |
| CC[C@H](C)[C@H](NC(=O)[C@@H](NC(=O)[C@H](Cc1c[nH]cn1)NC(=O)[C@@H](N)CC(C)C)[C@@H](C)CC)C(=O)O [LHII] (H-LHII-OH) | 120000 | sol | 0 | aggregates |  |
| CC[C@H](C)[C@H](NC(=O)[C@@H](NC(=O)[C@@H](N)CC(N)=O)[C@@H](C)O)C(=O)N[C@@H](Cc1ccccc1)C(=O)O [NTIF] (H-NTIF-OH) | 60000 |  |  |  | State [1, 3]: gel; GELATION [1, 4]: 1; Morphology ([2]; line of the table gives 60 mM): fibre |
| C[C@H](NC(=O)[C@@H](N)CO)C(=O)N[C@@H](Cc1c[nH]c2ccccc12)C(=O)N[C@@H](Cc1ccccc1)C(=O)O [SAWF] (H-SAWF-OH) | 60000 |  |  |  | State [1, 3]: gel; GELATION [1, 4]: 1; Morphology ([2]; line of the table gives 60 mM): fibre |
| CSCC[C@H](NC(=O)[C@@H]1CCCN1)C(=O)N[C@@H](Cc1ccccc1)C(=O)N[C@@H](Cc1ccc(O)cc1)C(=O)O [PMFY] (H-PMFY-OH) | 60000 |  |  |  | State [1, 3]: gel; GELATION [1, 4]: 1; Morphology ([2]; line of the table gives 60 mM): sheet |
| CC[C@H](C)[C@H](NC(=O)[C@@H](NC(=O)[C@@H](N)CC(C)C)C(C)C)C(=O)N[C@@H](Cc1ccc(O)cc1)C(=O)O [LVIY] (H-LVIY-OH) | 120000 | gel | 1 | sheet |  |
| CC[C@H](C)[C@H](NC(=O)[C@@H](N)CC(C)C)C(=O)N[C@@H](CCC(=O)O)C(=O)N[C@@H](CCSC)C(=O)O [LIEM] (H-LIEM-OH) | 90000 |  |  |  | State [1, 7]: gel; GELATION [1, 8]: 1; Morphology ([2]; line of the table gives 90 mM): hybrid(sheet+fibre) |
| CC[C@H](C)[C@H](N)C(=O)N[C@@H](CCCNC(=N)N)C(=O)N[C@H](C(=O)N[C@@H](Cc1c[nH]c2ccccc12)C(=O)O)C(C)C [IRVW] (H-IRVW-OH) | 120000 | suspension | 0 | sphere |  |
| CC(C)C[C@H](N)C(=O)N[C@@H](CCCNC(=N)N)C(=O)N[C@@H](Cc1ccccc1)C(=O)N[C@@H](Cc1c[nH]cn1)C(=O)O [LRFH] (H-LRFH-OH) | 120000 | sol | 0 | particle | morphology by TEM (in words) [2]: aggregates with different sizes |
| N[C@@H](Cc1ccccc1)C(=O)N[C@@H](Cc1ccccc1)C(=O)N[C@@H](Cc1ccccc1)C(=O)N[C@@H](Cc1ccccc1)C(=O)O [FFFF] (H-FFFF-OH) | 30000 |  |  |  | State [1, 9]: gel; GELATION [1, 10]: 1; Morphology ([2]; line of the table gives 30 mM): sheet |
| CC[C@H](C)[C@H](NC(=O)[C@@H]1CCCN1)C(=O)N[C@@H](Cc1ccccc1)C(=O)N[C@@H](Cc1ccc(O)cc1)C(=O)O [PIFY] (H-PIFY-OH) | 30000 |  |  |  | State [1, 9]: gel; GELATION [1, 10]: 1; Morphology ([2]; line of the table gives 30 mM): sphere |
| CC(C)C[C@H](NC(=O)[C@H](C)NC(=O)[C@@H](N)C(C)C)C(=O)N[C@@H](CCC(=O)O)C(=O)O [VALE] (H-VALE-OH) | 120000 | suspension | 0 | aggregates |  |
| CSCC[C@H](NC(=O)[C@@H](N)CCSC)C(=O)N[C@H](C(=O)N[C@H](C(=O)O)C(C)C)C(C)C [MMVV] (H-MMVV-OH) | 30000 |  |  |  | State [1, 9]: gel; GELATION [1, 10]: 1; Morphology ([2]; line of the table gives 30 mM): particle |
| CC[C@H](C)[C@H](NC(=O)[C@@H](NC(=O)[C@@H](N)Cc1ccccc1)C(C)C)C(=O)N[C@@H](Cc1ccc(O)cc1)C(=O)O [FVIY] (H-FVIY-OH) | 30000 |  |  |  | State [1, 9]: gel; GELATION [1, 10]: 1; hydrogel formation (in words) ([1]; vial-inverting method, representative hydrogels pH between 7.0 to 7.5): hydrogels; morphology by TEM (in words) [2]: entangled nanofibers |
| CC[C@H](C)[C@H](N)C(=O)N[C@H](C(=O)N[C@@H](Cc1ccccc1)C(=O)N[C@@H](Cc1c[nH]c2ccccc12)C(=O)O)C(C)C [IVFW] (H-IVFW-OH) | 120000 | gel | 1 | sphere |  |
| C[C@@H](O)[C@H](NC(=O)[C@@H](N)CO)C(=O)N[C@@H](Cc1ccc(O)cc1)C(=O)N[C@@H](Cc1ccccc1)C(=O)O [STYF] (H-STYF-OH) | 60000 |  |  |  | State [1, 3]: gel; GELATION [1, 4]: 1; Morphology ([2]; line of the table gives 60 mM): hybrid(sphere+fibre) |
| C[C@@H](O)[C@H](N)C(=O)NCC(=O)N[C@@H](Cc1ccccc1)C(=O)N[C@@H](Cc1ccccc1)C(=O)O [TGFF] (H-TGFF-OH) | 120000 | gel | 1 | aggregates |  |
| CC(C)C[C@H](NC(=O)[C@@H](N)Cc1c[nH]c2ccccc12)C(=O)N[C@H](C(=O)N[C@@H](Cc1c[nH]c2ccccc12)C(=O)O)C(C)C [WLVW] (H-WLVW-OH) | 90000 |  |  |  | State [1, 7]: gel; GELATION [1, 8]: 1; Morphology ([2]; line of the table gives 90 mM): fibre |
| NCCCC[C@H](NC(=O)[C@H](Cc1ccccc1)NC(=O)[C@H](Cc1ccccc1)NC(=O)[C@@H](N)CCC(=O)O)C(=O)O [EFFK] (H-EFFK-OH) | 120000 | sol | 0 | aggregates |  |
| CC(C)C[C@H](N)C(=O)N[C@@H](Cc1c[nH]c2ccccc12)C(=O)N[C@@H](Cc1ccccc1)C(=O)N[C@@H](Cc1ccccc1)C(=O)O [LWFF] (H-LWFF-OH) | 30000 |  |  |  | State [1, 9]: gel; GELATION [1, 10]: 1; Morphology ([2]; line of the table gives 30 mM): hybrid(sheet+fibre) |
| CC(C)C[C@H](N)C(=O)N[C@@H](Cc1c[nH]c2ccccc12)C(=O)N[C@@H](Cc1ccccc1)C(=O)N[C@@H](Cc1c[nH]c2ccccc12)C(=O)O [LWFW] (H-LWFW-OH) | 30000 |  |  |  | State [1, 9]: gel; CONCENTRATION (at which the hydrogel formed) ([1]; hydrogel-forming peptides only, vial-inverting method): 30000 µM; GELATION [1, 10]: 1; Morphology ([2]; line of the table gives 30 mM): sphere |
| O=C(O)[C@H](Cc1ccc(O)cc1)NC(=O)[C@H](Cc1c[nH]c2ccccc12)NC(=O)[C@H](Cc1c[nH]c2ccccc12)NC(=O)[C@@H]1CCCN1 [PWWY] (H-PWWY-OH) | 120000 | sol | 0 | aggregates |  |
| N[C@@H](Cc1c[nH]c2ccccc12)C(=O)N[C@@H](Cc1ccc(O)cc1)C(=O)N[C@@H](Cc1ccccc1)C(=O)N[C@@H](Cc1ccccc1)C(=O)O [WYFF] (H-WYFF-OH) | 30000 |  |  |  | State [1, 9]: gel; GELATION [1, 10]: 1; Morphology ([2]; line of the table gives 30 mM): fibre |
| N[C@@H](Cc1ccccc1)C(=O)N[C@@H](Cc1ccccc1)C(=O)N[C@@H](Cc1ccc(O)cc1)C(=O)N[C@@H](Cc1ccc(O)cc1)C(=O)O [FFYY] (H-FFYY-OH) | 30000 |  |  |  | State [1, 9]: gel; GELATION [1, 10]: 1; Morphology ([2]; line of the table gives 30 mM): needle |
| CC(C)[C@H](NC(=O)[C@H](C)NC(=O)[C@@H](N)[C@@H](C)O)C(=O)N[C@@H](Cc1ccccc1)C(=O)O [TAVF] (H-TAVF-OH) | 120000 | gel | 1 | sheet |  |
| NCCCC[C@H](NC(=O)[C@@H](N)Cc1ccccc1)C(=O)N[C@@H](Cc1ccccc1)C(=O)N[C@@H](Cc1ccccc1)C(=O)O [FKFF] (H-FKFF-OH) | 60000 |  |  |  | State [1, 3]: gel; GELATION [1, 4]: 1; Morphology ([2]; line of the table gives 60 mM): sheet |
| C[C@@H](O)[C@H](NC(=O)[C@H](Cc1ccccc1)NC(=O)[C@H](Cc1c[nH]c2ccccc12)NC(=O)[C@@H](N)CS)C(=O)O [CWFT] (H-CWFT-OH) | 120000 | suspension | 0 | aggregates |  |
